Source: article PMC5529566, “The cryo-EM structure of gastric H^+,K^+-ATPase with bound BYK99, a high-affinity member of K^+-competitive, imidazo[1,2-a]pyridine inhibitors” (Scientific Reports, 2017)

Experiments:
[1] = target: H^+,K^+-ATPase A335G (Sus scrofa, UniProt P19156, A336G); assay: ATPase assay, A335G mutant; conditions: for -fold increase in K i compared with wild-type: A335G
[2] = target: H^+,K^+-ATPase L141I (Sus scrofa, UniProt P19156, L142I); assay: ATPase assay, L141I mutant; conditions: for -fold increase in K i compared with wild-type: L141I
[3] = target: H^+,K^+-ATPase D137L (Sus scrofa, UniProt P19156, D138L); assay: ATPase assay, D137L mutant; conditions: for -fold increase in K i compared with wild-type: D137L
[4] = target: H^+,K^+-ATPase N138L (Sus scrofa, UniProt P19156, N139L); assay: ATPase assay, N138L mutant; conditions: for -fold increase in K i compared with wild-type: N138L
[5] = target: H^+,K^+-ATPase (Sus scrofa, UniProt P19156); assay: Dose-dependent inhibition of H^+,K^+-ATPase activity in the presence of 10 mM KCl
Method: Reactions were initiated by incubating at 37 °C using a thermal cycler, and maintained for 1 to 5 h (depending on the activity). Reactions were terminated by withdrawing 40 μL from the 80 μL reactant, and mixing with 80 μL of stop solution comprising 6% ascorbic acid and 2% ammonium molybdate in 1 N HCl, followed by the addition of 120 μL of 2% sodium arsenate, 2% sodium citrate, and 2% acetic acid. The amount of released inorganic phosphate was determined colorimetrically[39] from absorbance at 850 nm by the microplate reader (TECAN).

[6] = target: H^+,K^+-ATPase D136A (Sus scrofa, UniProt P19156, D137A); assay: ATPase assay, D136A mutant; conditions: for -fold increase in K i compared with wild-type: D136A
[7] = target: H^+,K^+-ATPase D137I (Sus scrofa, UniProt P19156, D138I); assay: ATPase assay, D137I mutant; conditions: for -fold increase in K i compared with wild-type: D137I
[8] = target: H^+,K^+-ATPase N138A (Sus scrofa, UniProt P19156, N139A); assay: ATPase assay, N138A mutant; conditions: for -fold increase in K i compared with wild-type: N138A
Sequence of H^+,K^+-ATPase N138A (P19156 whole entry N139A): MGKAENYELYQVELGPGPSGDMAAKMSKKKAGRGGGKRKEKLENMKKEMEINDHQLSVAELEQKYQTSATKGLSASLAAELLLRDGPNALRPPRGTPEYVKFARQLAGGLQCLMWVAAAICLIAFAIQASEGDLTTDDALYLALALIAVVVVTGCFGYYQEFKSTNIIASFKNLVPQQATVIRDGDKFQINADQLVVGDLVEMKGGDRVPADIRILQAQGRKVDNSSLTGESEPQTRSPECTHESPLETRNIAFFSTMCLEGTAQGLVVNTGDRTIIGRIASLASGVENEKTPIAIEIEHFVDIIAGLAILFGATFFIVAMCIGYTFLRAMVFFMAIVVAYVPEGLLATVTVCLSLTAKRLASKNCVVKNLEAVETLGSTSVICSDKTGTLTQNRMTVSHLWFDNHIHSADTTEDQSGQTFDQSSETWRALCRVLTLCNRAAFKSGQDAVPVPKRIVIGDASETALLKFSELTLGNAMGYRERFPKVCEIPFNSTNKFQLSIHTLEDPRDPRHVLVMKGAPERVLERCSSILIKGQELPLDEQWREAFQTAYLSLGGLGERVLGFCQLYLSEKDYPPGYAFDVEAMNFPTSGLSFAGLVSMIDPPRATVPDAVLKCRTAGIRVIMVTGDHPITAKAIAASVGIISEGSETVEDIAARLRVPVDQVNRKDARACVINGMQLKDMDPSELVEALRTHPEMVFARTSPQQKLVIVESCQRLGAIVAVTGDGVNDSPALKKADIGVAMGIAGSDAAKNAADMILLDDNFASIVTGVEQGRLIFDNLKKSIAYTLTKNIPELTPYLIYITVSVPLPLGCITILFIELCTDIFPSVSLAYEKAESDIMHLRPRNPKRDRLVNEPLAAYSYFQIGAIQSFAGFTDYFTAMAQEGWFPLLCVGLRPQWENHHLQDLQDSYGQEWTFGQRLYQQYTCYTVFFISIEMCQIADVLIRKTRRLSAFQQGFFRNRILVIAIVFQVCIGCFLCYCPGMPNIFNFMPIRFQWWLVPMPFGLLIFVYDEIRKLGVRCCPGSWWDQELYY
Sequence of H^+,K^+-ATPase N138A (P18434 whole entry partner): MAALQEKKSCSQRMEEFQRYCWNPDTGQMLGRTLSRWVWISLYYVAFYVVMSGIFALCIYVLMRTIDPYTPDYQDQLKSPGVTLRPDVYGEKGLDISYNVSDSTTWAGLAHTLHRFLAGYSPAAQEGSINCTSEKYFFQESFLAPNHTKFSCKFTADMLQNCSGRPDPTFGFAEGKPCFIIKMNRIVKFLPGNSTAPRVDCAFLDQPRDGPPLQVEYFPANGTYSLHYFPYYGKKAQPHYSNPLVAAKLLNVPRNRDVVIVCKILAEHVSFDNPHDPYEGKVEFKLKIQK

[9] = target: H^+,K^+-ATPase Y799A (Sus scrofa, UniProt P19156, Y800A); assay: ATPase assay, Y799A mutant; conditions: for -fold increase in K i compared with wild-type: Y799A
[10] = target: H^+,K^+-ATPase Y140F (Sus scrofa, UniProt P19156, Y141F); assay: ATPase assay, Y140F mutant; conditions: for -fold increase in K i compared with wild-type: Y140F
[11] = target: T1, H^+,K^+-ATPase WT (Sus scrofa, UniProt P19156); assay: K^+-competitive inhibition of H^+,K^+-ATPase activity, 96-well ATPase assay, wild-type; type: biochemical, pig; conditions: for -fold increase in K i compared with wild-type / Ki: WT; for Ki: global fitting, mean ± SEM
T1 construct: made in house; host or cells: HEK293S GnT1- cells (BacMam baculovirus transduction); permeabilised membrane fractions
T1 sequence (P19156 whole entry): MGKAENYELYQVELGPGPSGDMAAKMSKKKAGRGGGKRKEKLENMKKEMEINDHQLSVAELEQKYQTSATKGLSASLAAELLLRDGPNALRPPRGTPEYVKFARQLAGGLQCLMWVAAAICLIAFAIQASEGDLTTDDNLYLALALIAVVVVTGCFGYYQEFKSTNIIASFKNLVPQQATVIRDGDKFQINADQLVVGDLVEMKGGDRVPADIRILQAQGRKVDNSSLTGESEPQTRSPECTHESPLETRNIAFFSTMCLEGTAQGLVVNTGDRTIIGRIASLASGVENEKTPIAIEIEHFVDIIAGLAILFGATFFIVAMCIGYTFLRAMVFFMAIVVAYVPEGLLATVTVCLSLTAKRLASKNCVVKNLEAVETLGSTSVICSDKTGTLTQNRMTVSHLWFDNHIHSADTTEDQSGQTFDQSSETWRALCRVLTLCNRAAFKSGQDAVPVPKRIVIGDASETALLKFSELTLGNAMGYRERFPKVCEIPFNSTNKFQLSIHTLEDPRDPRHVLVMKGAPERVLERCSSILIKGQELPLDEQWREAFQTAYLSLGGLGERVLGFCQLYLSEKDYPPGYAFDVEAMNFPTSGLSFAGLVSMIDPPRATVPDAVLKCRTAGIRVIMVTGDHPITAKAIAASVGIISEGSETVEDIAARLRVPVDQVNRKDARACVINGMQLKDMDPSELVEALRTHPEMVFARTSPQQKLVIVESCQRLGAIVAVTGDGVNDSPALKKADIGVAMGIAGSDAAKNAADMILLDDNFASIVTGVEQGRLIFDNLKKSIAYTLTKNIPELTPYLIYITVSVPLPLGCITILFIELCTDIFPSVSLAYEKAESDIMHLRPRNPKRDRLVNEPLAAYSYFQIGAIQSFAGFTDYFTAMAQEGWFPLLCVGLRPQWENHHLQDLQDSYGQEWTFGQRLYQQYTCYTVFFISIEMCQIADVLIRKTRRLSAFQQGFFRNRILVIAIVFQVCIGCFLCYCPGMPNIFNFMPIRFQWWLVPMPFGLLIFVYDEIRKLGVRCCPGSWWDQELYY
T1 sequence (P18434 whole entry partner): as the sequence (P18434 whole entry partner) above

[12] = target: H^+,K^+-ATPase D137F (Sus scrofa, UniProt P19156, D138F); assay: ATPase assay, D137F mutant; conditions: for -fold increase in K i compared with wild-type: D137F
[13] = target: H^+,K^+-ATPase N138F (Sus scrofa, UniProt P19156, N139F); assay: ATPase assay, N138F mutant; conditions: for -fold increase in K i compared with wild-type: N138F
[14] = target: H^+,K^+-ATPase L139I (Sus scrofa, UniProt P19156, L140I); assay: ATPase assay, L139I mutant; conditions: for -fold increase in K i compared with wild-type: L139I
[15] = target: H^+,K^+-ATPase Y140A (Sus scrofa, UniProt P19156, Y141A); assay: ATPase assay, Y140A mutant; conditions: for -fold increase in K i compared with wild-type: Y140A
[16] = target: H^+,K^+-ATPase L139F (Sus scrofa, UniProt P19156, L140F); assay: ATPase assay, L139F mutant; conditions: for -fold increase in K i compared with wild-type: L139F
[17] = target: H^+,K^+-ATPase Y799F (Sus scrofa, UniProt P19156, Y800F); assay: ATPase assay, Y799F mutant; conditions: for -fold increase in K i compared with wild-type: Y799F
[18] = target: H^+,K^+-ATPase D136I (Sus scrofa, UniProt P19156, D137I); assay: ATPase assay, D136I mutant; conditions: for -fold increase in K i compared with wild-type: D136I
[19] = target: H^+,K^+-ATPase D136F (Sus scrofa, UniProt P19156, D137F); assay: ATPase assay, D136F mutant; conditions: for -fold increase in K i compared with wild-type: D136F
[20] = target: H^+,K^+-ATPase Y140I (Sus scrofa, UniProt P19156, Y141I); assay: ATPase assay, Y140I mutant; conditions: for -fold increase in K i compared with wild-type: Y140I
[21] = target: H^+,K^+-ATPase D136L (Sus scrofa, UniProt P19156, D137L); assay: ATPase assay, D136L mutant; conditions: for -fold increase in K i compared with wild-type: D136L
[22] = target: H^+,K^+-ATPase D137A (Sus scrofa, UniProt P19156, D138A); assay: ATPase assay, D137A mutant; conditions: for -fold increase in K i compared with wild-type: D137A
[23] = target: H^+,K^+-ATPase N138I (Sus scrofa, UniProt P19156, N139I); assay: ATPase assay, N138I mutant; conditions: for -fold increase in K i compared with wild-type: N138I
[24] = target: H^+,K^+-ATPase L139A (Sus scrofa, UniProt P19156, L140A); assay: ATPase assay, L139A mutant; conditions: for -fold increase in K i compared with wild-type: L139A
Sequence of H^+,K^+-ATPase L139A (P19156 whole entry L140A): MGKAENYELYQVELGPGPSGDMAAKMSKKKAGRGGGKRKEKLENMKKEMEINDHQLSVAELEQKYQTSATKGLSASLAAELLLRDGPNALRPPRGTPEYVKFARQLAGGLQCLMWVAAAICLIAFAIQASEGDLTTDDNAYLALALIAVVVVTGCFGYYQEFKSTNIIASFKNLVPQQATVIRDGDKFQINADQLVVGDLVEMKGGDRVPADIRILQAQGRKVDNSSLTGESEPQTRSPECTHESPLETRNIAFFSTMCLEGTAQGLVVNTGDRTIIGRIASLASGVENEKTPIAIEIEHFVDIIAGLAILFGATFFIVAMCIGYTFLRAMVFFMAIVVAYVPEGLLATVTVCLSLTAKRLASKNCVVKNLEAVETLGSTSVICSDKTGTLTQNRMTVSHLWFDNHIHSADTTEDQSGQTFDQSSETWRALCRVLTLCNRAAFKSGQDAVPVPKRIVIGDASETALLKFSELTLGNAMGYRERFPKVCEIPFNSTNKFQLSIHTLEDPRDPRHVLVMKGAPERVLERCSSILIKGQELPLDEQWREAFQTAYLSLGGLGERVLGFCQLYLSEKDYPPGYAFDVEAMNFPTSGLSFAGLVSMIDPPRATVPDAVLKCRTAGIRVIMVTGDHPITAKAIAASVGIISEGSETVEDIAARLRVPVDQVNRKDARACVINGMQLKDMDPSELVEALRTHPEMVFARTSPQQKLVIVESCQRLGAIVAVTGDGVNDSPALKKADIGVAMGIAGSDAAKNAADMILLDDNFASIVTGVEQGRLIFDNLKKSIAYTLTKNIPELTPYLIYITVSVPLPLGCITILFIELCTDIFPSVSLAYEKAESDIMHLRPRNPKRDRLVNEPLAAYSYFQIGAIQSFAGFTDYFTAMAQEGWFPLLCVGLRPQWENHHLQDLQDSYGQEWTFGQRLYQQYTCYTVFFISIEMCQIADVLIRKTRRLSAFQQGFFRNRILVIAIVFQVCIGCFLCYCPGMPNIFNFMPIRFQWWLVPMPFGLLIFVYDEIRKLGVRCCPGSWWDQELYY
Sequence of H^+,K^+-ATPase L139A (P18434 whole entry partner): as the sequence (P18434 whole entry partner) above

[25] = target: H^+,K^+-ATPase Y140L (Sus scrofa, UniProt P19156, Y141L); assay: ATPase assay, Y140L mutant; conditions: for -fold increase in K i compared with wild-type: Y140L
[26] = target: H^+,K^+-ATPase A335C/C813A (Sus scrofa, UniProt P19156, A336C/C814A); assay: ATPase assay, A335C/C813A mutant
[27] = target: H^+,K^+-ATPase L809F (Sus scrofa, UniProt P19156, L810F); assay: ATPase assay, L809F mutant

Sequence of H^+,K^+-ATPase A335G (P19156 whole entry A336G): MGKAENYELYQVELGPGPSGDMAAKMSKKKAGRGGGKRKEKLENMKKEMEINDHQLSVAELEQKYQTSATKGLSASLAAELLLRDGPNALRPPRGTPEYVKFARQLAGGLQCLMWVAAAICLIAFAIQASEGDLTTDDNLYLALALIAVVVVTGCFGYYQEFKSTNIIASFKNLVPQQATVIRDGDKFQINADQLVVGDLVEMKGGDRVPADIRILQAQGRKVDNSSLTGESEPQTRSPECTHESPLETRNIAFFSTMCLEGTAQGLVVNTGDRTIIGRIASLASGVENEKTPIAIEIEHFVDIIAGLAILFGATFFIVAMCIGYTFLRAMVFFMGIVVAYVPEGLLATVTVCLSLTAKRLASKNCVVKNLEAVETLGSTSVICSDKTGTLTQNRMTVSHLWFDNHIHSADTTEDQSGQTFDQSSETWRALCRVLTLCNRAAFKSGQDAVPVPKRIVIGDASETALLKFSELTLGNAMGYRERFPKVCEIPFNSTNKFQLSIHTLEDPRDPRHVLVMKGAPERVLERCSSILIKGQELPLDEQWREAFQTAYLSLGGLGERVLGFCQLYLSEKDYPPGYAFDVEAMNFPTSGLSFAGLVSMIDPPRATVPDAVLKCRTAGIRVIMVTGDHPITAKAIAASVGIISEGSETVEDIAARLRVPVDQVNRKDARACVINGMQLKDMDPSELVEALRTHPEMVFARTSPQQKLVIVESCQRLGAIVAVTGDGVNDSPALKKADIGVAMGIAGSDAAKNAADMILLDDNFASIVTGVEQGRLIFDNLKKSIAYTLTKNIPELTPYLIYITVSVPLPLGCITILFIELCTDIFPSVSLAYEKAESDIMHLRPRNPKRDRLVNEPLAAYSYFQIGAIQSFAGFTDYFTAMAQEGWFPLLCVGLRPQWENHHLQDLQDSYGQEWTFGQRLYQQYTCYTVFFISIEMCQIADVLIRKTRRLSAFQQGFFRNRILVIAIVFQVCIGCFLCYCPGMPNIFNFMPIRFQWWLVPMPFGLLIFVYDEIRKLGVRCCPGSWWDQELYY
Sequence of H^+,K^+-ATPase A335G (P18434 whole entry partner): as the sequence (P18434 whole entry partner) above

## Cc1nc2c3c(ccn2c1C)[C@@H](O)[C@H](O)[C@@H](c1ccccc1)N3C [BYK73]
[1]
  Ki: 0.078 ± 0.006 µM
  -fold increase in K i compared with wild-type: 0.016 fold
[1]; A335G vs WT
  fold increased affinity: more than 60 fold
[2]
  Ki: 3.9 ± 0.8 µM
  -fold increase in K i compared with wild-type: 0.8 fold
[3]
  Ki: > 100 µM
  -fold increase in K i compared with wild-type: > 20 fold
[4]
  Ki: > 100 µM
  -fold increase in K i compared with wild-type: > 20 fold
[5]
  IC50: 29 µM
[6]
  Ki: 9 ± 0.5 µM
  -fold increase in K i compared with wild-type: 1.8 fold
[7]
  Ki: 32 ± 5 µM
  -fold increase in K i compared with wild-type: 6.5 fold
[8]
  Ki: 6.6 ± 0.8 µM
  -fold increase in K i compared with wild-type: 1.3 fold
[9]
  Ki: > 200 µM
  -fold increase in K i compared with wild-type: > 40 fold
[10]
  Ki: 7.6 ± 0.5 µM
  -fold increase in K i compared with wild-type: 1.6 fold
[11]
  -fold increase in K i compared with wild-type: 1.0 fold
  Ki: 4.9 ± 0.4 µM
[11]; WT enzyme
  fold lower affinity compared with BYK99: 1000 fold
[12]
  Ki: 110 ± 10 µM
  -fold increase in K i compared with wild-type: 22 fold
[13]
  Ki: > 100 µM
  -fold increase in K i compared with wild-type: > 20 fold
[14]
  Ki: 1.7 ± 0.2 µM
  -fold increase in K i compared with wild-type: 0.3 fold
[15]
  Ki: 14 ± 2 µM
  -fold increase in K i compared with wild-type: 2.9 fold
[16]
  Ki: 8.9 ± 0.7 µM
  -fold increase in K i compared with wild-type: 1.8 fold
[17]
  Ki: 21 ± 2.7 µM
  -fold increase in K i compared with wild-type: 4.3 fold
[18]
  Ki: 6.7 ± 0.4 µM
  -fold increase in K i compared with wild-type: 1.4 fold
[19]
  Ki: 4 ± 0.2 µM
  -fold increase in K i compared with wild-type: 0.8 fold
[20]
  Ki: 4 ± 0.5 µM
  -fold increase in K i compared with wild-type: 0.8 fold
[21]
  Ki: 3.2 ± 0.2 µM
  -fold increase in K i compared with wild-type: 0.7 fold
[22]
  Ki: 120 ± 30 µM
  -fold increase in K i compared with wild-type: 25 fold
[23]
  Ki: 62 ± 17 µM
  -fold increase in K i compared with wild-type: 13 fold
[24]
  Ki: 5.8 ± 0.6 µM
  -fold increase in K i compared with wild-type: 1.2 fold
[25]
  Ki: 6.5 ± 0.6 µM
  -fold increase in K i compared with wild-type: 1.3 fold

## N#CCc1cnc2c(OCc3ccccc3)cccn12 [SCH-Me^−]
[26]
  Ki: 4200 ± 2300 µM
[26]; A335C/C813A
  -fold increase in K i compared with wild-type: 382 fold
[1]
  Ki: 1.6 ± 0.2 µM
  -fold increase in K i compared with wild-type: 0.15 fold
[2]
  Ki: 7.3 ± 0.8 µM
  -fold increase in K i compared with wild-type: 0.7 fold
[3]
  Ki: 270 ± 100 µM
  -fold increase in K i compared with wild-type: 25 fold
[4]
  Ki: 23 ± 7 µM
  -fold increase in K i compared with wild-type: 2.1 fold
[5]
  IC50: 54 µM
[6]
  Ki: 11 ± 1 µM
  -fold increase in K i compared with wild-type: 1.0 fold
[7]
  Ki: 170 ± 40 µM
  -fold increase in K i compared with wild-type: 16 fold
[8]
  Ki: 0.56 ± 0.08 µM
  -fold increase in K i compared with wild-type: 0.05 fold
[9]
  Ki: 740 ± 170 µM
  -fold increase in K i compared with wild-type: 67 fold
[10]
  Ki: 21 ± 3 µM
  -fold increase in K i compared with wild-type: 1.9 fold
[11]
  -fold increase in K i compared with wild-type: 1.0 fold
  Ki: 11 ± 0.1 µM
[12]
  Ki: 34 ± 7 µM
  -fold increase in K i compared with wild-type: 3.1 fold
[13]
  Ki: 320 ± 300 µM
  -fold increase in K i compared with wild-type: 29 fold
[14]
  Ki: 2.3 ± 0.3 µM
  -fold increase in K i compared with wild-type: 0.2 fold
[15]
  Ki: 13 ± 1 µM
  -fold increase in K i compared with wild-type: 1.2 fold
[16]
  Ki: 13 ± 1 µM
  -fold increase in K i compared with wild-type: 1.2 fold
[17]
  Ki: 31 ± 3 µM
  -fold increase in K i compared with wild-type: 2.8 fold
[18]
  Ki: 6.8 ± 0.6 µM
  -fold increase in K i compared with wild-type: 0.6 fold
[19]
  Ki: 6.7 ± 0.5 µM
  -fold increase in K i compared with wild-type: 0.6 fold
[20]
  Ki: 5 ± 0.8 µM
  -fold increase in K i compared with wild-type: 0.5 fold
[21]
  Ki: 5.4 ± 0.5 µM
  -fold increase in K i compared with wild-type: 0.5 fold
[22]
  Ki: 61 ± 7 µM
  -fold increase in K i compared with wild-type: 5.5 fold
[27]
  Ki: 110 ± 20 µM
[27]; L809F
  -fold increase in K i compared with wild-type: 10 fold
[23]
  Ki: 0.95 ± 0.23 µM
  -fold increase in K i compared with wild-type: 0.09 fold
[24]
  Ki: 8.7 ± 0.7 µM
  -fold increase in K i compared with wild-type: 0.8 fold
[25]
  Ki: 3.7 ± 0.4 µM
  -fold increase in K i compared with wild-type: 0.3 fold
